The record followed here is US11959145B2, “Method for identifying interventions that control the translational activity of ribosomal proteins in differential mRNA expression” (priority 2009, dated 2024).

This test has as its system CYH2-PTC-FF reporter. Nature of the test: dual luciferase (Firefly/Renilla) CYH2-PTC reporter assay. The test is classed as cell-based, yeast. The source says: FIG. 1: Schematic representation of comparative dual luciferase PTC assay as employed here. Firefly (FF) and Renilla (R) in wild type (WT) yeast cells are compared with luminescence counts of a PTC-FF reporter (e.g. the CYH2-PTC-FF reporter) in wild type yeast cells, wherein a PTC reduces the FF protein and thus luminescence.
FIG. 3: Gene dosage of ribosomal proteins modulates level of protein expression from PTC mRNAs. […] In FIG. 3B, a modulation of the expression of the FF/FF(PTC) reporter in selected ribosomal protein deletion strains is shown. In FIG. 3C, a modulation of expression of the LAMB3-FF/LAMB3(PTC)-FF reporter in selected ribosomal protein deletion strains is shown.
The yeast CYH2 was amplified from the genomic yeast DNA with the primers LG 751 and LG 752. The ATG of the CYH2 was left out to be in frame with the promoter and the firefly luciferase reporter. The 1.0 kb PCR product and pLBK 162 were digested with KpnI and SacI. The CYH2-PTC reporter was ligated in pLBK 162, thus generating pLBK 165 (FIG. 5f). […]
The reporter plasmids are to be transformed in the WT and ribosomal protein deletion strains. […] For testing the different levels of read-through a PTC containing reporter plasmid (e.g. pLBK 165) and for internal standard pLBK 164 are used. […]
(In general: In a reporter assay the amount or activity of a reporter protein is the signal.)

“Also recorded” adds a separate entry of the source.

On to gentamycin, for which, under “RPL10/ΔRPL10 gene dosage reduced yeast strain, gentamycin added”, the “expression level of the CYH2-PTC-FF reporter” value is “not strong or not present at all; also recorded: does not contribute to alteration”. For the same substance, the “CYH2-PTC-FF level (Firefly signal)” value (WT yeast strain (BY4743), gentamycin added as control) is given as “the signal increases; also recorded: induce an increase”.
